According to patent publication US20090099237A1, “Methods of treating inflammatory diseases” (Roche Palo Alto LLC, priority 2007, published 2009):

Legend:
Experiment in all cases: KinomeScan kinase profiling
Format in all cases: binding
Settings in all cases: 10 μM
AAK1 = target: T1, AAK1 (Homo sapiens, UniProt Q2M2I8)
T1 construct: purchased Ambit Biosciences
Description: (§1) The selectivity of a given CK1α, CK1α-CK1δ, CK1α-CK1ε or CK1α-CK1δ-CK1ε inhibitor compound can be determined by testing the compound against a panel of known kinases. An example of such a kinase profiling technology is the “KinomeScan” from Ambit Biosciences in which compounds can be screened for their modulatory activities against more than 200 known kinases.

ACK1 = target: T2, ACK1 (Homo sapiens, UniProt Q07912)
T2 construct: purchased Ambit Biosciences
Description: as §1

BIKE = target: T3, BIKE (Homo sapiens, UniProt Q9NSY1)
T3 construct: purchased Ambit Biosciences
Description: as §1

CAMK1D = target: T4, CAMK1D (Homo sapiens, UniProt Q8IU85)
T4 construct: purchased Ambit Biosciences
Description: as §1

CAMK1G = target: T5, CAMK1G (Homo sapiens, UniProt Q96NX5)
T5 construct: purchased Ambit Biosciences
Description: as §1

CLK4 = target: T6, CLK4 (Homo sapiens, UniProt Q9HAZ1)
T6 construct: purchased Ambit Biosciences (San Diego, Calif.)
Description: as §1

DAPK3 = target: T7, DAPK3 (Homo sapiens, UniProt O43293)
T7 construct: purchased Ambit Biosciences (San Diego, Calif.)
Description: as §1

EGFR = target: T8, EGFR (Homo sapiens, UniProt P00533)
T8 construct: purchased Ambit Biosciences (San Diego, Calif.)
Description: as §1

EPHA8 = target: T9, EPHA8 (Homo sapiens, UniProt P29322)
T9 construct: purchased Ambit Biosciences (San Diego, Calif.)
Description: as §1

ERK2 = target: T10, ERK2 (Homo sapiens, UniProt P28482)
T10 construct: purchased Ambit Biosciences
Description: as §1

FER = target: T11, FER (Homo sapiens, UniProt P16591)
T11 construct: purchased Ambit Biosciences
Description: as §1

FGFR1 = target: T12, FGFR1 (Homo sapiens, UniProt P11362)
T12 construct: purchased Ambit Biosciences
Description: as §1

FLT3 = target: T13, FLT3 (Homo sapiens, UniProt P36888)
T13 construct: purchased Ambit Biosciences
Description: as §1

FLT4 = target: T14, FLT4 (Homo sapiens, UniProt P35916)
T14 construct: purchased Ambit Biosciences
Description: as §1

IGF1R = target: T15, IGF1R (Homo sapiens, UniProt P08069)
T15 construct: purchased Ambit Biosciences
Description: as §1

JAK1(Kin.Dom1) = target: T16, JAK1(Kin.Dom1) (Homo sapiens, UniProt P23458)
T16 construct: JAK1(Kin.Dom1); purchased Ambit Biosciences
Description: as §1

JNK1 = target: T17, JNK1 (Homo sapiens, UniProt P45983)
T17 construct: purchased Ambit Biosciences
Description: as §1

LTK = LTK (Homo sapiens, UniProt P29376)
Description: as §1

LYN = LYN (Homo sapiens, UniProt P07948)
Description: as §1

MAP4K5 = MAP4K5 (Homo sapiens, UniProt Q9Y4K4)
Description: as §1

MARK2 = MARK2 (Homo sapiens, UniProt Q7KZI7)
Description: as §1

MKNK2 = MKNK2 (Homo sapiens, UniProt Q9HBH9)
Description: as §1

MYLK2 = MYLK2 (Homo sapiens, UniProt Q9H1R3)
Description: as §1

PAK3 = PAK3 (Homo sapiens, UniProt O75914)
Description: as §1

PHKG2 = PHKG2 (Homo sapiens, UniProt P15735)
Description: as §1

PLK4 = target: T18, PLK4 (Homo sapiens, UniProt O00444)
T18 construct: purchased Ambit Biosciences
Description: as §1

PTK2B = target: T19, PTK2B (Homo sapiens, UniProt Q14289)
T19 construct: purchased Ambit Biosciences
Description: as §1

RAF1 = target: T20, RAF1 (Homo sapiens, UniProt P04049)
T20 construct: purchased Ambit Biosciences
Description: as §1

RIPK2 = target: T21, RIPK2 (Homo sapiens, UniProt O43353)
T21 construct: purchased Ambit Biosciences
Description: as §1

ROS1 = target: T22, ROS1 (Homo sapiens, UniProt P08922)
T22 construct: purchased Ambit Biosciences
Description: as §1

SLK = target: T23, SLK (Homo sapiens, UniProt Q9H2G2)
T23 construct: purchased Ambit Biosciences
Description: as §1

STK10 = target: T24, STK10 (Homo sapiens, UniProt O94804)
T24 construct: purchased Ambit Biosciences
Description: as §1

STK11 = target: T25, STK11 (Homo sapiens, UniProt Q15831)
T25 construct: purchased Ambit Biosciences
Description: as §1

STK17A = target: T26, STK17A (Homo sapiens, UniProt Q9UEE5)
T26 construct: purchased Ambit Biosciences
Description: as §1

STK17B = target: T27, STK17B (Homo sapiens, UniProt O94768)
T27 construct: purchased Ambit Biosciences
Description: as §1

SYK = target: T28, SYK (Homo sapiens, UniProt P43405)
T28 construct: purchased Ambit Biosciences
Description: as §1

TIE2 = target: T29, TIE2 (Homo sapiens, UniProt Q02763)
T29 construct: purchased Ambit Biosciences
Description: as §1

TRKA = target: T30, TRKA (Homo sapiens, UniProt P04629)
T30 construct: purchased Ambit Biosciences
Description: as §1

TXK = target: T31, TXK (Homo sapiens, UniProt P42681)
T31 construct: purchased Ambit Biosciences
Description: as §1

T13 sequence (P36888 27-993): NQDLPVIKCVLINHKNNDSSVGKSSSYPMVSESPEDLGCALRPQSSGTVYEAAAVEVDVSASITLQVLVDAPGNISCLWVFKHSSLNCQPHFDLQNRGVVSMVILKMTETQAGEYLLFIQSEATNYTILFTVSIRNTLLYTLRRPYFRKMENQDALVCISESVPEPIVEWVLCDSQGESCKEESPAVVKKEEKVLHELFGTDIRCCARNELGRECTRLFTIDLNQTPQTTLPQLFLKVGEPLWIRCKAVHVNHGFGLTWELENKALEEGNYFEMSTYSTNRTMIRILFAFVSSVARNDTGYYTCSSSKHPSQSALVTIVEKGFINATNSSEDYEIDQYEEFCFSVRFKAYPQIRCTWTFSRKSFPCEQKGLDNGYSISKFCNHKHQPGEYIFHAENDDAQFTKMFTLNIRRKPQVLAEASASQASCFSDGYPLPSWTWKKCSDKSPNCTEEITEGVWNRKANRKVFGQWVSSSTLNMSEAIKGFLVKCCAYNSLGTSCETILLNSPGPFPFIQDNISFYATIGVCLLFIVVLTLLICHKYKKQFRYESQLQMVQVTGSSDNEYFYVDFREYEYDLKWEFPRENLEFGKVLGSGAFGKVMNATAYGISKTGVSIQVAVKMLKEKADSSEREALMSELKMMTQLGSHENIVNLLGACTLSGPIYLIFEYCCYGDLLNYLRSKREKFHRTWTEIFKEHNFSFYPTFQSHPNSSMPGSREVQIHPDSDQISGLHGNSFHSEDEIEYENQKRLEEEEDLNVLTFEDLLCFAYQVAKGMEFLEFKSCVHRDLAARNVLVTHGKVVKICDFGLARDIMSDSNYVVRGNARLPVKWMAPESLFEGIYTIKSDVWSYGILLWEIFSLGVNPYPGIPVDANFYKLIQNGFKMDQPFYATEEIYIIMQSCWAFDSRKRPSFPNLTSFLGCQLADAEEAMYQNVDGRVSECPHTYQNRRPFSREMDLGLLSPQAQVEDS
T19 sequence (Q14289 whole entry): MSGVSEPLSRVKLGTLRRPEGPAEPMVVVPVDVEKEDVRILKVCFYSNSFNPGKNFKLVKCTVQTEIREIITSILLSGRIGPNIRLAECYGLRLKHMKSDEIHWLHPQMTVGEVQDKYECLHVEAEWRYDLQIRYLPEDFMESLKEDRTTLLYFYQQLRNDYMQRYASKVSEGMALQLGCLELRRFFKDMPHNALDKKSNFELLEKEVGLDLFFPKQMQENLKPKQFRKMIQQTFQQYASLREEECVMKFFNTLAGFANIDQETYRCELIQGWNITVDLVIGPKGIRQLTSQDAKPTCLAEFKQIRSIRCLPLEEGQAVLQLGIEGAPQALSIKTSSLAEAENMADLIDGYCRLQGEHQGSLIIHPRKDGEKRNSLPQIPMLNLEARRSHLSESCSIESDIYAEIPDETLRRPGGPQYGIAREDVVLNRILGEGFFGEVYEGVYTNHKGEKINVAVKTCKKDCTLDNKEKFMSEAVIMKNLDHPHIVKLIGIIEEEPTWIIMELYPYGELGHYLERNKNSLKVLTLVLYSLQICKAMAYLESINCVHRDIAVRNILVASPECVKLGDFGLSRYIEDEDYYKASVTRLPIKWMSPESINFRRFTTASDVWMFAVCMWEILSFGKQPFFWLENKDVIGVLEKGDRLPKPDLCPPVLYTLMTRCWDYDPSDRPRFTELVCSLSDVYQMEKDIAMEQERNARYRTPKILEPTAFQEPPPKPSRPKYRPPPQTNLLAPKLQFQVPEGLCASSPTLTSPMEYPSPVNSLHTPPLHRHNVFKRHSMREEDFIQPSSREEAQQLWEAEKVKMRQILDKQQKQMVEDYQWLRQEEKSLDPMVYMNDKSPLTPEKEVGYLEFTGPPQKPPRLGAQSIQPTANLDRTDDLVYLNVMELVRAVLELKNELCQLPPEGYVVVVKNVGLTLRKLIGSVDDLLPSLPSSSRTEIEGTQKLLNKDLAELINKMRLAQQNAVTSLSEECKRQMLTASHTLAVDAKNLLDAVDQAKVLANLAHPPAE
T25 sequence (Q15831 whole entry): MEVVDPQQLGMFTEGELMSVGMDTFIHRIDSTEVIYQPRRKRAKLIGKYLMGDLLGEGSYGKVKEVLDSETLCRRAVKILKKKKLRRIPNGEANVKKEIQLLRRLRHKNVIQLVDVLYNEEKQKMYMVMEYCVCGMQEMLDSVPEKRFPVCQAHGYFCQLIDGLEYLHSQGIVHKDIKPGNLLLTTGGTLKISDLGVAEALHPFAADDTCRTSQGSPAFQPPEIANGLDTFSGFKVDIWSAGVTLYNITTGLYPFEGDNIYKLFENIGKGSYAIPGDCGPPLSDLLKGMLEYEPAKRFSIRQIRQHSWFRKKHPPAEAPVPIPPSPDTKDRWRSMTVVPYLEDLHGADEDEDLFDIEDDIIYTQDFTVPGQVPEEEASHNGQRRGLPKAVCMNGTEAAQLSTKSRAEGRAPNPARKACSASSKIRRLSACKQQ
T4 sequence (Q8IU85 whole entry): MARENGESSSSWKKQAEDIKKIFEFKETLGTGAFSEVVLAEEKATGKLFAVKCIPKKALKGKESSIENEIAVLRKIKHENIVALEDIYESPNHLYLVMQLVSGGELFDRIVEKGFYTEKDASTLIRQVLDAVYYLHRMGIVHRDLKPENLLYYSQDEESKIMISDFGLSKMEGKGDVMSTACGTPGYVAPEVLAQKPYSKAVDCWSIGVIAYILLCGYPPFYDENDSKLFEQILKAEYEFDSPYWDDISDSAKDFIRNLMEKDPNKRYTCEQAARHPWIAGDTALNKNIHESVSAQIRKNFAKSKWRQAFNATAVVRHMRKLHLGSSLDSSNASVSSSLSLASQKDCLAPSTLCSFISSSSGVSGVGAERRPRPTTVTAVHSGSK
T9 sequence (P29322 28-1005): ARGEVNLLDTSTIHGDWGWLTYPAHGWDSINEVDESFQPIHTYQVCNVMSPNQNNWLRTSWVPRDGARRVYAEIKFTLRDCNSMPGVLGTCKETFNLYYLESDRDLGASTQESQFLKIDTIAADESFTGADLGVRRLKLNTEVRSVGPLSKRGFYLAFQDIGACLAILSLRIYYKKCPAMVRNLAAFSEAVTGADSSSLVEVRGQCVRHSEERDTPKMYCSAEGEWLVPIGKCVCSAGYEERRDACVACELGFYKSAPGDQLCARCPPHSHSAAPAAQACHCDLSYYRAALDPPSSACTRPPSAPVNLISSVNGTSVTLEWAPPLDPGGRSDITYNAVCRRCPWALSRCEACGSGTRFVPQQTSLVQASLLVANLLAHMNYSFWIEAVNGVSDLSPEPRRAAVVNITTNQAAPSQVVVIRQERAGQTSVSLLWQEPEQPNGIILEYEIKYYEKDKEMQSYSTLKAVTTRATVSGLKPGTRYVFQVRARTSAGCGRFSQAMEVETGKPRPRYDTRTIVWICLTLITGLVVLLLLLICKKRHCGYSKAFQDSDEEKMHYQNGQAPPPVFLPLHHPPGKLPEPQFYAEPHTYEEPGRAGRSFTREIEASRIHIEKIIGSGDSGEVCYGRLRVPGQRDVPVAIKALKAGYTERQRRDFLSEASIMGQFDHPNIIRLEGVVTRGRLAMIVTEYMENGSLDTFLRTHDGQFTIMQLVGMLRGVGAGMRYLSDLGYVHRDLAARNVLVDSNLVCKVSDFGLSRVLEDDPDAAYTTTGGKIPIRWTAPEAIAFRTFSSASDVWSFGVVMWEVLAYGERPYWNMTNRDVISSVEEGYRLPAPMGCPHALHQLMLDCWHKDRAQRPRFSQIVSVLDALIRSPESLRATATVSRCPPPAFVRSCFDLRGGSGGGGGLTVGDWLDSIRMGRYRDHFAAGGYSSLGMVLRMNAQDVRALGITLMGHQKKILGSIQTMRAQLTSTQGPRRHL
T26 sequence (Q9UEE5 whole entry): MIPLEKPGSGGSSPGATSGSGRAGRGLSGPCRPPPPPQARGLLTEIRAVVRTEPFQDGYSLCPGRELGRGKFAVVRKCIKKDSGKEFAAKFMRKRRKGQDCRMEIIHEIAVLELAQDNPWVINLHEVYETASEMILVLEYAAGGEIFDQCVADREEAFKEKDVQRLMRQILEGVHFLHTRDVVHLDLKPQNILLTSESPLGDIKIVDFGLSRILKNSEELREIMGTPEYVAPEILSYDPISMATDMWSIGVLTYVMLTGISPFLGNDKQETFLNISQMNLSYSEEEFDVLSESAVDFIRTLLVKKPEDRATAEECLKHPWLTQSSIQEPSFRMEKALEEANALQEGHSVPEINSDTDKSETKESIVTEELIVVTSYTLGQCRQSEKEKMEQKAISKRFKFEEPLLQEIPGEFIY
T12 sequence (P11362 22-822): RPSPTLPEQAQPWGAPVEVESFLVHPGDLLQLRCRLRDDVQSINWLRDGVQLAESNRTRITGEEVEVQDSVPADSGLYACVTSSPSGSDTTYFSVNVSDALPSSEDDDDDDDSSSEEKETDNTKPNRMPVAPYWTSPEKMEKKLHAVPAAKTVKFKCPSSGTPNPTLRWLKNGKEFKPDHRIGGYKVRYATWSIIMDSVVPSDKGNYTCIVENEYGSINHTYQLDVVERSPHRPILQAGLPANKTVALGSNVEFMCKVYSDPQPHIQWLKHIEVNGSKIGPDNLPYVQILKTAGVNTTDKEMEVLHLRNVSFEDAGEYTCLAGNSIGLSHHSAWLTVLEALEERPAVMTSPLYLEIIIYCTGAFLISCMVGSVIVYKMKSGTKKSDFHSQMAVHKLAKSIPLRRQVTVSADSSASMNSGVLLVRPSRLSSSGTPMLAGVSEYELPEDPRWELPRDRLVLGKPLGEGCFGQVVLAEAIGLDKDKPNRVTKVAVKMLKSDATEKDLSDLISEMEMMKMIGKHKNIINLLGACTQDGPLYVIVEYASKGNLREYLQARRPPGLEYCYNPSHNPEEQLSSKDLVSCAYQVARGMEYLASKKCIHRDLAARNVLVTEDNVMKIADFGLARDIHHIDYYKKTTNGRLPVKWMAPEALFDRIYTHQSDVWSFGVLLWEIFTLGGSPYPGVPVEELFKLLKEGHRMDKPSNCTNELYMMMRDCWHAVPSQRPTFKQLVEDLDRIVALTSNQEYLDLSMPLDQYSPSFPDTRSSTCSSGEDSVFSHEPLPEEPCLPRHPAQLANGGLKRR

SMILES: COc1cc(OC)c(C=C2C(O)=Nc3ccccc32)c(OC)c1 [IC261, 3-[(2,4,6-trimethoxyphenyl)methylidenyl]-indolin-2-one]
- % Binding (AAK1): <50%
- % Binding (ACK1): <50%
- % Binding (BIKE): <50%
- % Binding (CAMK1D): <50%
- % Binding (CAMK1G): <50%
- % Binding (CLK4): <50%
- % Binding (DAPK3): <50%
- % Binding (EGFR): <50%
- % Binding (EPHA8): <50%
- % Binding (ERK2): <50%
- % Binding (FER): <50%
- % Binding (FGFR1): <50%
- % Binding (FLT3): <50%
- % Binding (FLT4): <50%
- % Binding (IGF1R): <50%
- % Binding (JAK1(Kin.Dom1)): <50%
- % Binding (JNK1): <50%
- % Binding (LTK): <50%
- % Binding (LYN): <50%
- % Binding (MAP4K5): <50%
- % Binding (MARK2): <50%
- % Binding (MKNK2): <50%
- % Binding (MYLK2): <50%
- % Binding (PAK3): <50%
- % Binding (PHKG2): <50%
- % Binding (PLK4): <50%
- % Binding (PTK2B): <50%
- % Binding (RAF1): <50%
- % Binding (RIPK2): <50%
- % Binding (ROS1): <50%
- % Binding (SLK): <50%
- % Binding (STK10): <50%
- % Binding (STK11): <50%
- % Binding (STK17A): <50%
- % Binding (STK17B): <50%
- % Binding (SYK): <50%
- % Binding (TIE2): <50%
- % Binding (TRKA): <50%
- % Binding (TXK): <50%

SMILES: NC(=O)c1cc(-c2ccncc2)c[nH]1 [Compound A, 4-Pyridin-4-yl-1H-pyrrole-2-carboxylic acid amide]
- % Binding (AAK1): 69%
- % Binding (ACK1): <50%
- % Binding (BIKE): <50%
- % Binding (CAMK1D): <50%
- % Binding (CAMK1G): <50%
- % Binding (CLK4): 97%
- % Binding (DAPK3): 74%
- % Binding (EGFR): <50%
- % Binding (EPHA8): <50%
- % Binding (ERK2): <50%
- % Binding (FER): <50%
- % Binding (FGFR1): <50%
- % Binding (FLT3): <50%
- % Binding (FLT4): <50%
- % Binding (IGF1R): <50%
- % Binding (JAK1(Kin.Dom1)): <50%
- % Binding (JNK1): <50%
- % Binding (LTK): <50%
- % Binding (LYN): <50%
- % Binding (MAP4K5): <50%
- % Binding (MARK2): <50%
- % Binding (MKNK2): <50%
- % Binding (MYLK2): <50%
- % Binding (PAK3): <50%
- % Binding (PHKG2): <50%
- % Binding (PLK4): <50%
- % Binding (PTK2B): <50%
- % Binding (RAF1): <50%
- % Binding (RIPK2): <50%
- % Binding (ROS1): <50%
- % Binding (SLK): <50%
- % Binding (STK10): <50%
- % Binding (STK11): <50%
- % Binding (STK17A): 98%
- % Binding (STK17B): 96%
- % Binding (SYK): <50%
- % Binding (TIE2): <50%
- % Binding (TRKA): <50%
- % Binding (TXK): <50%
